This is an account of results in patent publication US11608332B2, “FGFR4 inhibitor and preparation method and use thereof” (Jiangsu Hansoh Pharmaceutical Group Co., Ltd., priority 2016, dated 2023).

One data set concerns the target FGFR1 kinase (Homo sapiens (Human), UniProt P11362). Description: Enzymologic experiment of FGFR1 (TR-FRET). As to conditions: TR-FRET kinase activity. Format: biochemical. Here is the method: 2. Enzymologic Experiment of FGFR1
In this experiment, the inhibitory effect of the compounds on FGFR1 kinase activity was tested by a fluorescence resonance energy transfer (TR-FRET) method, and the half maximal inhibitory concentration (IC50) of the compounds on the FGFR1 kinase activity was determined.
1) 1˜5 μL of FGFR1 enzymatic solution was added to a 384-well plate, and the final concentration of the enzyme was 0.1˜5 nM.
2) 1˜5 μL of diluted solution in gradient of the compound was added.
3) 1˜5 μL of a substrate mixture containing substrate polypeptide with a final concentration of 5˜50 nM and ATP with a final concentration of 10˜200 μM was added.
4) The mixture was incubated for 0.5-3 hours at room temperature.
5) 10 μL of EDTA and a test solution comprising labeled antibody were added, and the plate was incubated for 1 hour at room temperature.
6) The fluorescence signal values of each plate were determined by a microplate reader at 665 nm.
7) The inhibition rates were calculated according to the fluorescence signal values.
The IC50 of the compound was obtained by curve fitting according to the inhibition rates at different concentrations, and the enzymatic activity of the specific example compounds is shown in Table 1.
Background: TR-FRET usually uses a lanthanide donor and a delayed reading to cut background.

Another data set relates to Hep 3B cells. Description: Inhibition of Hep 3B cell proliferation (CellTiter-Glo). Format: cell-based. As to conditions: Homo sapiens, Hep3B, 72 hours. Here is the method: 3. Experiment on the Inhibition of Hep 3B Cell Proliferation
In this experiment, the inhibitory effect of the compounds on Hep 3B cell proliferation was tested by a CellTiter-Glo method, and the half maximal inhibitory concentration (IC50) of the compounds on the activity of cell proliferation was determined.
1) A 96-well cell culture plate was seeded with 50˜100 μL of Hep 3B cell suspension at a density of 1-5×10^4 cells/ml. The culture plate was incubated in an incubator for 16-24 hours (37° C., 5% CO2).
(§1) 2) Different concentrations of the test compound in a gradient dilution were added to the cells in the culture plate. The culture plate was incubated in an incubator for 72 hours (37° C., 5% CO2).
3) 50-100 μL of CellTiter-Glo reagent were added to each well. Then, the culture plate was shaken or left to stand for 5˜30 minutes at room temperature.
(§2) 4) The chemiluminescence signal values of each plate were determined by a microplate reader.
(§3) 5) The inhibition rates were calculated according to the chemiluminescence signal values.
6) The IC50 of the compound was obtained by curve fitting according to the inhibition rates at different concentrations, and the cell activity of the specific example compounds is shown in Table 2.
(Cellular ATP, detected with luciferase, serves as a proxy for viable cell number.)

In the next data set the test system is HuH-7 cells. Description: Inhibition of HuH-7 cell proliferation (CellTiter-Glo). Conditions: Homo sapiens, 72 hours. Format: cell-based. The protocol: 4. Experiment on the Inhibition of HuH-7 Cell Proliferation
In this experiment, the inhibitory effect of the compounds on HuH-7 cell proliferation was tested by a CellTiter-Glo method, and the half maximal inhibitory concentration (IC50) of the compounds on the activity of cell proliferation was determined.
1) A 96-well cell culture plate was seeded with 50˜100 μL of HuH-7 cell suspension at a density of 1-5×10^4 cells/ml. The culture plate was incubated in an incubator for 16˜24 hours (37° C., 5% CO2).
as §1
(§4) 3) 50˜100 μL of CellTiter-Glo reagent were added to each well. Then, the culture plate was shaken or left to stand for 5˜30 minutes at room temperature.
as §2, §3
6) The IC50 of the compound was obtained by curve fitting according to the inhibition rates at different concentrations, and the cell activity of the specific Example compounds is shown in Table 2.

Another data set has as its system SK-HEP-1 cells. The experiment in a line: Inhibition of SK-HEP-1 cell proliferation (CellTiter-Glo). The format is cell-based. Conditions: Homo sapiens, SK-HEP1, 72 hours. The protocol: 5. Experiment on the Inhibition of SK-HEP-1 Cell Proliferation
In this experiment, the inhibitory effect of the compounds on SK-HEP-1 cell proliferation was tested by a CellTiter-Glo method, and the half maximal inhibitory concentration (IC50) of the compounds on the activity of cell proliferation was determined.
1) A 96-well cell culture plate was seeded with 50˜100 μL of SK-HEP-1 cell suspension at a density of 1-5×10^4 cells/ml. The culture plate was incubated in an incubator for 16˜24 hours (37° C., 5% CO2).
as §1, §4, §2, §3
The IC50 of the compound was obtained by curve fitting according to the inhibition rates at different concentrations, and the cell activity of the specific Example compounds is shown in Table 2.

Data set [1] can be described thus: Pharmacokinetic (PK) analysis in rats. Conditions: SD rats, single intragastric administration, 5 mg/kg, plasma; for AUC(0-t): read-out: Area Under Curve AUC0-t; for AUC(0-inf): read-out: Area Under Curve AUC0-∞; for half-life: read-out: Half-Time t1/2 (converted); for Cmax: read-out: Plasma Concentration Cmax. The format is in vivo, Sprague Dawley (SD) rats. Here is the method: 6. Pharmacokinetic (PK) Analysis in Rats
Mode of administration: a single intragastric administration.
Formulation: 0.5% CMC and 1% Tween 80, ultrasonic dissolution.
Sampling points: 0.5, 1, 2, 4, 6, 8 and 24 hours after administration.
1. 1.0 ml of intravenous blood was collected and placed in a K2EDTA test tube.
The blood was centrifuged at room temperature at the speed of 1000˜3000×g for 5˜20 minutes to isolate the plasma, which was then stored at −80° C. 2. 160 μL of acetonitrile were added to 40 μL of plasma sample for precipitation, and then the mixture was centrifuged at the speed of 500˜2000×g for 5˜20 minutes. 3. 100 μL of treated solution were taken, and the concentration of the test compound was analyzed by LC/MS/MS. The LC/MS/MS analytical instrument was AB Sciex API 4000.
Liquid Chromatography Analysis:
Condition of Liquid chromatography: Shimadzu LC-20AD pump
Chromatographic column: phenomenex Gemiu 5 um C18 50×4.6 mm
Mobile phase: Solution A is 0.1% aqueous formic acid solution, and solution B is acetonitrile
Elution time: 0-3.5 minutes, the eluent was as follows:
Mass spectrometry analysis:
Mass spectrometer setup conditions: positive ion electrospray ionization (ESI) mode.

Structures are written as SMILES.

Chain of FGFR1 kinase (P11362 22-822): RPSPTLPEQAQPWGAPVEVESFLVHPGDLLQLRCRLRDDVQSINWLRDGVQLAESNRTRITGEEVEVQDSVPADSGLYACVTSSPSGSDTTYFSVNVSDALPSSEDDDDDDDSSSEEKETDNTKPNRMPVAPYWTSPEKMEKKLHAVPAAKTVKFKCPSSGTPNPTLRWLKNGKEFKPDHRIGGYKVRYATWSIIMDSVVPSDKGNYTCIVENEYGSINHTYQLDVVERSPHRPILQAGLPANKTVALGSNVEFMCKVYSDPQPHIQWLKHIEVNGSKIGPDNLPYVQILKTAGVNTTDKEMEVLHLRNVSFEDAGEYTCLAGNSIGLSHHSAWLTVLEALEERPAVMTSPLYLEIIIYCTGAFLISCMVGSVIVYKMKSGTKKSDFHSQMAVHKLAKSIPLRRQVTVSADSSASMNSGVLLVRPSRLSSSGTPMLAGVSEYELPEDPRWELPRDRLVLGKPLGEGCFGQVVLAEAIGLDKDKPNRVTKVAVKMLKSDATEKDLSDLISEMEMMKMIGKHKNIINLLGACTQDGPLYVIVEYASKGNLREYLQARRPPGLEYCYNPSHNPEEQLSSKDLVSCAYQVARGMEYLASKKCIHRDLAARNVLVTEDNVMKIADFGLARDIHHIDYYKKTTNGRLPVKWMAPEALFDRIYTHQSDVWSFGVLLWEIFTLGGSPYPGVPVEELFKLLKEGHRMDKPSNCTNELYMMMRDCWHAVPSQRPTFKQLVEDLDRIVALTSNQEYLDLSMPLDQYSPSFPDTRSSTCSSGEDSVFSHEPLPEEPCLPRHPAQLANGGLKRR

On to `COCCNc1cc(NC(=O)N2CCCc3cc(CN(C)C(=O)[C@H]4CCOC4)c(C=O)nc32)ncc1C#N` [Example 6, (S)—N-(5-Cyano-4-((2-methoxyethyl)amino)pyridin-2-yl)-7-formyl-6-((N-methyltetrahydrofuran-3-carboxamido)methyl)-3,4-dihydro-1,8-naphthyridin-1(2H)-carb oxamide], for which the IC50 (in general, the concentration needed to halve the response being measured) against FGFR1 kinase is > 10000 nM; in the data set on Hep 3B cells, 2.7 nM; in the data set on HuH-7 cells, 9.7 nM; with SK-HEP-1 cells it was > 10000 nM.

As for `COCCNc1cc(NC(=O)N2CCCc3cc(CN(C)C(=O)[C@@H]4CCOC4)c(C=O)nc32)ncc1C#N` [Example 7, (R)—N-(5-Cyano-4-((2-methoxyethyl)amino)pyridin-2-yl)-7-formyl-6-((N-methyltetrahydrofuran-3-carboxamido)methyl)-3,4-dihydro-1,8-naphthyridin-1(2H)-carb oxamide], the IC50 at FGFR1 kinase is > 10000 nM; in the data set with Hep 3B cells, 4.7 nM; with HuH-7 cells, 10.6 nM; with SK-HEP-1 cells, > 10000 nM.

For the compound `COCCNc1cc(NC(=O)N2CCCc3cc(CN4CCC(OC)C4=O)c(C=O)nc32)ncc1C#N` (stereo not shown) [Example 44, N-(5-Cyano-4-((2-methoxyethyl)amino)pyridin-2-yl)-7-formyl-6-((3-methoxy-2-carbonylpyrrolidin-1-yl)methyl)-3,4-dihydro-1,8-naphthyridin-1(2H)-carboxamide], in the data set with Hep 3B cells, the IC50 came out at 6 nM. In addition, in the data set on HuH-7 cells, the IC50 was determined as 6.9 nM. In the data set with SK-HEP-1 cells, the IC50 was > 10000 nM. Moreover, the Peak Time tmax in data set [1] came out at 2 h. Moreover, in data set [1] (Sprague-Dawley, rat, po), the AUC(0-t) was found to be 9.69 µg·h/mL, the AUC(0-inf) amounted to 9.82 µg·h/mL, the half-life is 1 h and the Cmax came out at 3.01 µg/mL.

Consider `COCCNc1cc(NC(=O)N2CCCc3cc(CN4CC[C@@H](OC)C4=O)c(C=O)nc32)ncc1C#N` [Example 45, (R)—N-(5-Cyano-4-((2-methoxyethyl)amino)pyridin-2-yl)-7-formyl-6-((3-methoxy-2-carbonylpyrrolidin-1-yl)methyl)-3,4-dihydro-1,8-naphthyridin-1(2H)-carboxamide], for which, in the data set with Hep 3B cells, it took 1.9 nM to reach half-maximal inhibition (IC50). In the data set with HuH-7 cells, this compound displayed an IC50 of 8.3 nM. Moreover, in the data set on SK-HEP-1 cells, the IC50 was > 10000 nM. The compound also yielded a Peak Time tmax in data set [1] of 2 h. In addition, in data set [1] (Sprague-Dawley, rat, po), the AUC(0-t) was found to be 12.1 µg·h/mL, the AUC(0-inf) was 12.3 µg·h/mL, the half-life was 1.1 h and the Cmax came to 3.76 µg/mL.

In the case of `CO[C@H]1CCN(c2cc(NC(=O)N3CCCc4cc(CN5CC[C@H](OC)C5=O)c(C=O)nc43)ncc2C#N)C1` [Example 53, N-(5-Cyano-4-((S)-3-methoxypyrrolidin-1-yl)pyridin-2-yl)-7-formyl-6-(((S)-3-methoxy-2-carbonylpyrrolidin-1-yl)methyl)-3,4-dihydro-1,8-naphthyridin-1(2H)-carboxamide], the IC50 at FGFR1 kinase is > 10000 nM.

With `COC[C@H](C)Nc1cc(NC(=O)N2CCCc3cc(CN4CC[C@H](OC)C4=O)c(C=O)nc32)ncc1C#N` [Example 90, N-(5-Cyano-4-(((S)-1-methoxypropan-2-yl)amino)pyridin-2-yl)-7-formyl-6-(((S)-3-methoxy-2-carbonylpyrrolidin-1-yl)methyl)-3,4-dihydro-1,8-naphthyridin-1(2H)-carboxamide], the IC50 on FGFR1 kinase is > 10000 nM.

Consider `COC[C@@H](C)Nc1cc(NC(=O)N2CCCc3cc(CN4CC[C@@H](OC)C4=O)c(C=O)nc32)ncc1C#N` [Example 91, N-(5-cyano-4-(((R)-1-methoxypropan-2-yl)amino)pyridin-2-yl)-7-formyl-6-(((R)-3-methoxy-2-carbonylpyrrolidin-1-yl)methyl)-3,4-dihydro-1,8-naphthyridin-1(2H)-carboxamide], for which half-maximal inhibition with Hep 3B cells (IC50) was put at 1.5 nM. The IC50 in the data set on HuH-7 cells turned out to be 3.3 nM. In addition, in the data set with SK-HEP-1 cells, the IC50 is > 10000 nM. The Peak Time tmax in data set [1] was 0.5 h. In data set [1] (Sprague-Dawley, rat, po), the AUC(0-t) was 12.9 µg·h/mL, the AUC(0-inf) was determined as 13 µg·h/mL, the half-life is 0.9 h and the Cmax turned out to be 2.79 µg/mL. Moreover, the MRT – broadly, a mean duration of stay, worked out from the concentration-time curve – in data set [1] (Sprague-Dawley, rat, po, read-out: Mean Residence Time MRT) is 2.8 h.

Turning to `COC[C@H](C)Nc1cc(NC(=O)N2CCCc3cc(CN(C)C(=O)[C@H]4CCCO4)c(C=O)nc32)ncc1C#N` [Example 92, N-(5-Cyano-4-(((S)-1-methoxypropan-2-yl)amino)pyridin-2-yl)-7-formyl-6-(((R)—N-methyltetrahydrofuran-2-carboxamido)methyl)-3,4-dihydro-1,8-naphthyridin-1(2H)-carboxamide], the IC50 at FGFR1 kinase is > 10000 nM.

As for `CN(Cc1cc2c(nc1C=O)N(C(=O)Nc1cc(N[C@@H]3CCOC3)c(C#N)cn1)CCC2)C(=O)[C@H]1CCCO1` [Example 95, N-(5-Cyano-4-(((R)-tetrahydrofuran-3-yl)amino)pyridin-2-yl)-7-formyl-6-(((R)—N-methyltetrahydrofuran-2-carboxamido)methyl)-3,4-dihydro-1,8-naphthyridin-1 (2H)-carboxamide], the IC50 was > 10000 nM against FGFR1 kinase, 2.8 nM in the data set with Hep 3B cells, 12.9 nM in the data set on HuH-7 cells and > 10000 nM with SK-HEP-1 cells.

For `COCCNc1cc(NC(=O)N2CCCc3cc(CN(C=O)C[C@H]4CCCO4)c(C=O)nc32)ncc1C#N` [Example 110, (R)—N-(5-Cyano-4-((2-methoxyethyl)amino)pyridin-2-yl)-7-formyl-6-((N-((tetrahydrofuran-2-yl)methyl)formylamino)methyl)-3,4-dihydro-1,8-naphthyridin-1(2H)-carboxamide], the values for the IC50 in the data set with Hep 3B cells, in the data set on HuH-7 cells and in the data set on SK-HEP-1 cells were 8.3 nM, 28.5 nM and > 10000 nM, respectively.

With `COCCNc1cc(NC(=O)N2CCCc3cc(CN(C=O)[C@H]4CCOC4)c(C=O)nc32)ncc1C#N` [Example 114, (S)—N-(5-Cyano-4-((2-methoxyethyl)amino)pyridin-2-yl)-7-formyl-6-((N-(tetrahydrofuran-3-yl)formylamino)methyl)-3,4-dihydro-1,8-naphthyridin-1(2H)-carboxamide], the IC50 with Hep 3B cells was 8.6 nM; with HuH-7 cells, 26.7 nM; with SK-HEP-1 cells, > 10000 nM.
